Data: PubChem BioAssay AID248 (DTP/NCI, 2004)
Toxic doses and inconclusive results are not listed. Rule as the data show it: active = T/C of 150% or more; inactive = T/C below 125%.

Test system: L1210 leukemia ip in BDF1 mice, survival T/C
Experiment: NCI In Vivo Anticancer Drug Screen. Data for tumor model L1210 Leukemia (intraperitoneal) in B6D2F1 (BDF1) mice
Details: endpoint: mean survival time, higher = longer survival
Outline: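 Value reflects the ratio of survival in compound-treated mice to survival in vehicle-treated controls, with both groups carrying the same transplanted tumor.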

[1] = dose: 100.0 mg/kg/injection, schedule: Q01DX009 (ip), vehicle: Klucel (hydroxypropylcellulose) (HPC)
[2] = dose: 100.0 mg/kg/injection, schedule: Q04DX003 (ip), vehicle: Klucel (hydroxypropylcellulose) (HPC)
[3] = dose: 200.0 mg/kg/injection, schedule: Q01DX009 (ip), vehicle: Klucel (hydroxypropylcellulose) (HPC)
[4] = dose: 200.0 mg/kg/injection, schedule: Q04DX003 (ip), vehicle: Klucel (hydroxypropylcellulose) (HPC)
[5] = dose: 400.0 mg/kg/injection, schedule: Q01DX009 (ip), vehicle: Klucel (hydroxypropylcellulose) (HPC)
[6] = dose: 400.0 mg/kg/injection, schedule: Q04DX003 (ip), vehicle: Klucel (hydroxypropylcellulose) (HPC)
[7] = dose: 75.0 mg/kg/injection, schedule: Q01DX001 (ip), vehicle: saline
[8] = dose: 150.0 mg/kg/injection, schedule: Q01DX001 (ip), vehicle: saline
[9] = dose: 100.0 mg/kg/injection, schedule: Q04DX003 (ip), vehicle: saline with Tween-80
[10] = dose: 200.0 mg/kg/injection, schedule: Q04DX003 (ip), vehicle: saline with Tween-80
[11] = dose: 100.0 mg/kg/injection, schedule: Q04DX002 (ip), vehicle: Klucel (hydroxypropylcellulose) (HPC)
[12] = dose: 200.0 mg/kg/injection, schedule: Q04DX002 (ip), vehicle: Klucel (hydroxypropylcellulose) (HPC)
[13] = dose: 25.0 mg/kg/injection, schedule: Q04DX002 (ip), vehicle: saline
[14] = dose: 50.0 mg/kg/injection, schedule: Q04DX002 (ip), vehicle: saline
[15] = dose: 100.0 mg/kg/injection, schedule: Q01DX001 (ip), vehicle: saline
[16] = dose: 200.0 mg/kg/injection, schedule: Q01DX001 (ip), vehicle: saline
[17] = dose: 400.0 mg/kg/injection, schedule: Q01DX001 (ip), vehicle: saline
[18] = dose: 300.0 mg/kg/injection, schedule: Q01DX001 (ip), vehicle: saline

Measured: T/C

C/C=C/C(=O)OC
inactive: dose: 100.0 mg/kg/injection, schedule: Q01DX009 (ip), vehicle: saline 101 % of control | dose: 200.0 mg/kg/injection, schedule: Q01DX009 (ip), vehicle: saline 102 % of control | dose: 400.0 mg/kg/injection, schedule: Q01DX009 (ip), vehicle: saline 104 % of control

O=[N+]([O-])c1cnc2ccnn2c1
inactive: [1] 101 % of control | [2] 100 % of control | [3] 97 % of control | [4] 92 % of control | [5] 111 % of control | [6] 100 % of control

Cc1cc(C)c(C(C)(CS(C)(=O)=O)CS(C)(=O)=O)c(C)c1C(C)(CS(C)(=O)=O)CS(C)(=O)=O
inactive: [1] 105 % of control | [3] 102 % of control | [5] 105 % of control

Cc1cc(C)n(/N=C/c2ccccc2[N+](=O)[O-])c(=O)c1C#N
inactive: [1] 91 % of control | [2] 102 % of control | [3] 92 % of control | [4] 93 % of control | [5] 92 % of control | [6] 96 % of control

Nc1nc(SCc2ccccc2)cc(C(=O)O)n1
inactive: dose: 25.0 mg/kg/injection, schedule: Q01DX Z (ip), vehicle: methylcellulose (MC) 92 % of control | dose: 50.0 mg/kg/injection, schedule: Q01DX Z (ip), vehicle: methylcellulose (MC) 101 % of control

CN(C)/C=N/N1CCCCCC1
inactive: dose: 100.0 mg/kg/injection, schedule: Q04DX003 (ip), vehicle: saline 98 % of control

CCOC(=O)CNC(=O)Nc1cccc(Cl)c1Cl
inactive: [1] 102 % of control | [3] 98 % of control | [5] 98 % of control

O=C(NCCc1c[nH]c2ccccc12)C(=O)NCCc1c[nH]c2ccccc12
inactive: [2] 108 % of control | [4] 93 % of control | [6] 93 % of control

COc1ccccc1NC(=O)c1ccccc1
inactive: [1] 89 % of control | [5] 95 % of control

O=S(=O)(/N=C1C=C/C(=N\S(=O)(=O)c2ccccc2)C(Sc2ccccc2)=C\1)c1ccccc1
inactive: dose: 100.0 mg/kg/injection, schedule: Q01DX001 (ip), vehicle: saline with Tween-80 91 % of control | dose: 200.0 mg/kg/injection, schedule: Q01DX001 (ip), vehicle: saline with Tween-80 94 % of control | dose: 400.0 mg/kg/injection, schedule: Q01DX001 (ip), vehicle: saline with Tween-80 105 % of control

CCN(CC)CCCNC(c1ccc(OC)cc1)C(Cl)(Cl)Cl (stereo not given)
inactive: [7] 90 % of control | [8] 93 % of control

COc1cc(C)c(OC)cc1C
inactive: [9] 99 % of control | [10] 99 % of control | dose: 400.0 mg/kg/injection, schedule: Q04DX003 (ip), vehicle: saline with Tween-80 94 % of control

CN(C)C(N)=O
inactive: dose: 75.0 mg/kg/injection, schedule: Q01DX009 (ip), vehicle: saline 102 % of control | dose: 150.0 mg/kg/injection, schedule: Q01DX009 (ip), vehicle: saline 98 % of control | dose: 300.0 mg/kg/injection, schedule: Q01DX009 (ip), vehicle: saline 100 % of control

Cc1cc(-c2ccccc2O)nc(N(C)CC(=O)O)n1
inactive: [11] 94 % of control | [12] 98 % of control | dose: 400.0 mg/kg/injection, schedule: Q04DX002 (ip), vehicle: Klucel (hydroxypropylcellulose) (HPC) 96 % of control

O=C(Cn1ccc(=O)[nH]c1=O)Nc1ccc(O)c(C(=O)O)c1
inactive: dose: 50.0 mg/kg/injection, schedule: Q04DX003 (ip), vehicle: Klucel (hydroxypropylcellulose) (HPC) 100 % of control | [2] 107 % of control | [4] 100 % of control

Cn1ccoc1=NC1CCCCC1
inactive: [9] 96 % of control | [10] 95 % of control

CCCCCCCC/C=C\CCCCCCCC(=O)OCCCCCCCCCCCCCC
inactive: [1] 104 % of control | [3] 98 % of control | [5] 94 % of control

CC(=O)OCCS(=O)(=O)c1c(Cl)c(Cl)c(Cl)c(Cl)c1Cl
inactive: [11] 95 % of control | [12] 88 % of control

CN(C)C1CCCC/C=C\C(=O)NC1 (stereo not given)
inactive: [13] 99 % of control | [14] 101 % of control | [7] 109 % of control | dose: 100.0 mg/kg/injection, schedule: Q04DX002 (ip), vehicle: saline 99 % of control

CCCCCCCNC(=S)NNC(=O)CCCC(=O)NNC(=S)NCCCCCCC
inactive: dose: 50.0 mg/kg/injection, schedule: Q01DX001 (ip), vehicle: saline 98 % of control | [15] 96 % of control | [16] 96 % of control | [17] 90 % of control

N#C/C(=C(/Cc1ccc(F)cc1)NP(=O)(c1ccccc1)c1ccccc1)c1ccc(F)cc1
inactive: dose: 100.0 mg/kg/injection, schedule: Q01DX001 (ip), vehicle: steriod suspending solution 101 % of control | dose: 200.0 mg/kg/injection, schedule: Q01DX001 (ip), vehicle: steriod suspending solution 90 % of control

CC1(C)OC2OC(C(O)CO)C(O)C2O1 (stereo not given) (tested in a mixture with another compound)
inactive: dose: 12.5 mg/kg/injection, schedule: Q04DX002 (ip), vehicle: saline 100 % of control | [13] 95 % of control | [14] 95 % of control

C=CCN(CC=C)S(=O)(=O)c1cccc(C(=O)O)c1
inactive: [2] 103 % of control | [4] 92 % of control | [6] 105 % of control

CCC1C(=O)NCCNC1=O
inactive: [7] 106 % of control | [8] 93 % of control | [18] 96 % of control

CCc1ccccc1N=Nc1sc(N)nc1C
inactive: [7] 94 % of control | [8] 100 % of control | [18] 97 % of control

CNC[C@@H](O)c1ccc(O)c(O)c1
inactive: dose: 0.1 mg/kg/injection, schedule: Q01DX009 (ip), vehicle: saline 94 % of control | dose: 0.2 mg/kg/injection, schedule: Q01DX001 (ip), vehicle: saline 112 % of control | dose: 0.2 mg/kg/injection, schedule: Q01DX009 (ip), vehicle: saline 109 % of control | dose: 0.31 mg/kg/injection, schedule: Q01DX009 (ip), vehicle: saline 111 % of control | dose: 0.4 mg/kg/injection, schedule: Q01DX001 (ip), vehicle: saline 106 % of control | dose: 0.4 mg/kg/injection, schedule: Q01DX009 (ip), vehicle: saline 102 % of control | dose: 0.4 mg/kg/injection, schedule: Q04DX003 (ip), vehicle: saline 108 % of control | dose: 0.59 mg/kg/injection, schedule: Q01DX009 (ip), vehicle: saline 95 % of control | dose: 0.62 mg/kg/injection, schedule: Q01DX009 (ip), vehicle: saline 98 % of control | dose: 0.8 mg/kg/injection, schedule: Q01DX001 (ip), vehicle: saline 104 % of control | dose: 0.8 mg/kg/injection, schedule: Q04DX003 (ip), vehicle: saline 113 % of control | dose: 0.9 mg/kg/injection, schedule: Q01DX009 (ip), vehicle: saline 97 % of control | dose: 1.1 mg/kg/injection, schedule: Q01DX001 (ip), vehicle: saline 96 % of control | dose: 1.25 mg/kg/injection, schedule: Q01DX009 (ip), vehicle: saline 101 % of control | dose: 1.3 mg/kg/injection, schedule: Q01DX009 (ip), vehicle: saline 97 % of control | dose: 1.6 mg/kg/injection, schedule: Q04DX003 (ip), vehicle: saline 98 % of control | dose: 2.3 mg/kg/injection, schedule: Q04DX003 (ip), vehicle: saline 103 % of control | dose: 2.5 mg/kg/injection, schedule: Q01DX009 (ip), vehicle: saline 102 % of control | dose: 3.6 mg/kg/injection, schedule: Q04DX003 (ip), vehicle: saline 109 % of control

CCCCCCNC(=O)NC
inactive: [1] 97 % of control | [3] 103 % of control

O=C1c2ccccc2-c2ccccc2C1(Cl)Cl
inactive: [7] 105 % of control

O=S(=O)(c1ccccc1)C1CCCC1Cl (stereo not given)
inactive: [15] 104 % of control | [16] 96 % of control | [17] 100 % of control
